Laboratory results: the NIST ThermoML archive (doi:10.1021/je700428f)

Assay: xn = mol fraction of the nth substance listed
Conditions: 101 kPa, Liquid; for viscosity: Capillary tube (Ostwald / Ubbelohde) method

CCCCCCCCC [nonane] + COC(C)(C)C
Conditions | mass density [kg/m3] | viscosity [mPa·s]
273.15 K, x2 = 0 | 733.184 | 0.972
273.15 K, x2 = 0.1006 | – | 0.912
273.15 K, x2 = 0.1085 | 734.69 | –
273.15 K, x2 = 0.1722 | 735.67 | –
273.15 K, x2 = 0.2026 | – | 0.85
273.15 K, x2 = 0.2995 | – | 0.796
273.15 K, x2 = 0.3037 | 737.89 | –
273.15 K, x2 = 0.4011 | 739.94 | –
273.15 K, x2 = 0.4045 | – | 0.74
273.15 K, x2 = 0.5003 | – | 0.688
273.15 K, x2 = 0.5008 | 742.31 | –
273.15 K, x2 = 0.6005 | 745.08 | –
273.15 K, x2 = 0.6035 | – | 0.632
273.15 K, x2 = 0.6992 | 748.17 | –
273.15 K, x2 = 0.6998 | – | 0.586
273.15 K, x2 = 0.7975 | – | 0.54
273.15 K, x2 = 0.8005 | 751.89 | –
273.15 K, x2 = 0.8925 | 755.81 | –
273.15 K, x2 = 0.8971 | – | 0.491
278.15 K, x2 = 0 | 729.335 | 0.896
278.15 K, x2 = 0.1006 | – | 0.842
278.15 K, x2 = 0.1085 | 730.78 | –
278.15 K, x2 = 0.1722 | 731.71 | –
278.15 K, x2 = 0.2026 | – | 0.787
278.15 K, x2 = 0.2995 | – | 0.738
278.15 K, x2 = 0.3037 | 733.82 | –
278.15 K, x2 = 0.4011 | 735.78 | –
278.15 K, x2 = 0.4045 | – | 0.689
278.15 K, x2 = 0.5003 | – | 0.641
278.15 K, x2 = 0.5008 | 738.04 | –
278.15 K, x2 = 0.6005 | 740.68 | –
278.15 K, x2 = 0.6035 | – | 0.591
278.15 K, x2 = 0.6992 | 743.64 | –
278.15 K, x2 = 0.6998 | – | 0.549
278.15 K, x2 = 0.7975 | – | 0.505
278.15 K, x2 = 0.8005 | 747.2 | –
278.15 K, x2 = 0.8925 | 750.95 | –
278.15 K, x2 = 0.8971 | – | 0.46
283.15 K, x2 = 0 | 725.473 | 0.828
283.15 K, x2 = 0.1006 | – | 0.78
283.15 K, x2 = 0.1085 | 726.84 | –
283.15 K, x2 = 0.1722 | 727.73 | –
283.15 K, x2 = 0.2026 | – | 0.731
283.15 K, x2 = 0.2995 | – | 0.687
283.15 K, x2 = 0.3037 | 729.73 | –
283.15 K, x2 = 0.4011 | 731.59 | –
283.15 K, x2 = 0.4045 | – | 0.643
283.15 K, x2 = 0.5003 | – | 0.598
283.15 K, x2 = 0.5008 | 733.74 | –
283.15 K, x2 = 0.6005 | 736.26 | –
283.15 K, x2 = 0.6035 | – | 0.554
283.15 K, x2 = 0.6992 | 739.08 | –
283.15 K, x2 = 0.6998 | – | 0.514
283.15 K, x2 = 0.7975 | – | 0.474
283.15 K, x2 = 0.8005 | 742.47 | –
283.15 K, x2 = 0.8925 | 746.06 | –
283.15 K, x2 = 0.8971 | – | 0.433
288.15 K, x2 = 0 | 721.603 | 0.768
288.15 K, x2 = 0.1006 | – | 0.726
288.15 K, x2 = 0.1085 | 722.9 | –
288.15 K, x2 = 0.1722 | 723.73 | –
288.15 K, x2 = 0.2026 | – | 0.681
288.15 K, x2 = 0.2995 | – | 0.641
288.15 K, x2 = 0.3037 | 725.62 | –
288.15 K, x2 = 0.4011 | 727.39 | –
288.15 K, x2 = 0.4045 | – | 0.6
288.15 K, x2 = 0.5003 | – | 0.56
288.15 K, x2 = 0.5008 | 729.43 | –
288.15 K, x2 = 0.6005 | 731.81 | –
288.15 K, x2 = 0.6035 | – | 0.52
288.15 K, x2 = 0.6992 | 734.49 | –
288.15 K, x2 = 0.6998 | – | 0.484
288.15 K, x2 = 0.7975 | – | 0.446
288.15 K, x2 = 0.8005 | 737.72 | –
288.15 K, x2 = 0.8925 | 741.13 | –
288.15 K, x2 = 0.8971 | – | 0.407
293.15 K, x2 = 0 | 717.725 | 0.716
293.15 K, x2 = 0.1006 | – | 0.677
293.15 K, x2 = 0.1085 | 718.92 | –
293.15 K, x2 = 0.1722 | 719.72 | –
293.15 K, x2 = 0.2026 | – | 0.637
293.15 K, x2 = 0.2995 | – | 0.601
293.15 K, x2 = 0.3037 | 721.51 | –
293.15 K, x2 = 0.4011 | 723.16 | –
293.15 K, x2 = 0.4045 | – | 0.564
293.15 K, x2 = 0.5003 | – | 0.526
293.15 K, x2 = 0.5008 | 725.09 | –
293.15 K, x2 = 0.6005 | 727.34 | –
293.15 K, x2 = 0.6035 | – | 0.489
293.15 K, x2 = 0.6992 | 729.87 | –
293.15 K, x2 = 0.6998 | – | 0.455
293.15 K, x2 = 0.7975 | – | 0.418
293.15 K, x2 = 0.8005 | 732.94 | –
293.15 K, x2 = 0.8925 | 736.17 | –
293.15 K, x2 = 0.8971 | – | 0.384
298.15 K, x2 = 0 | 713.834 | 0.669
298.15 K, x2 = 0.1006 | – | 0.634
298.15 K, x2 = 0.1085 | 714.95 | –
298.15 K, x2 = 0.1722 | 715.7 | –
298.15 K, x2 = 0.2026 | – | 0.598
298.15 K, x2 = 0.2995 | – | 0.564
298.15 K, x2 = 0.3037 | 717.36 | –
298.15 K, x2 = 0.4011 | 718.92 | –
298.15 K, x2 = 0.4045 | – | 0.529
298.15 K, x2 = 0.5003 | – | 0.496
298.15 K, x2 = 0.5008 | 720.73 | –
298.15 K, x2 = 0.6005 | 722.84 | –
298.15 K, x2 = 0.6035 | – | 0.461
298.15 K, x2 = 0.6992 | 725.22 | –
298.15 K, x2 = 0.6998 | – | 0.43
298.15 K, x2 = 0.7975 | – | 0.396
298.15 K, x2 = 0.8005 | 728.11 | –
298.15 K, x2 = 0.8925 | 731.18 | –
298.15 K, x2 = 0.8971 | – | 0.363
303.15 K, x2 = 0 | 709.929 | 0.628
303.15 K, x2 = 0.1006 | – | 0.596
303.15 K, x2 = 0.1085 | 710.96 | –
303.15 K, x2 = 0.1722 | 711.66 | –
303.15 K, x2 = 0.2026 | – | 0.563
303.15 K, x2 = 0.2995 | – | 0.532
303.15 K, x2 = 0.3037 | 713.21 | –
303.15 K, x2 = 0.4011 | 714.65 | –
303.15 K, x2 = 0.4045 | – | 0.498
303.15 K, x2 = 0.5003 | – | 0.468
303.15 K, x2 = 0.5008 | 716.34 | –
303.15 K, x2 = 0.6005 | 718.32 | –
303.15 K, x2 = 0.6035 | – | 0.436
303.15 K, x2 = 0.6992 | 720.55 | –
303.15 K, x2 = 0.6998 | – | 0.408
303.15 K, x2 = 0.7975 | – | 0.377
303.15 K, x2 = 0.8005 | 723.25 | –
303.15 K, x2 = 0.8925 | 726.13 | –
308.15 K, x2 = 0 | – | 0.59
308.15 K, x2 = 0.1006 | – | 0.56
308.15 K, x2 = 0.2026 | – | 0.531
308.15 K, x2 = 0.2995 | – | 0.502
308.15 K, x2 = 0.4045 | – | 0.47
308.15 K, x2 = 0.5003 | – | 0.443
308.15 K, x2 = 0.6035 | – | 0.413
